One molecule from US7579013B2, “Formulations for coated microprojections containing non-volatile counterions” (Alza Corporation, priority 2003, dated 2009) can be followed below.

A short description of this series: Solubility in water. In kind it is physicochemical. The conditions noted are these: at pH about 5.

Each structure is given as a SMILES string.

On to `CC[C@H](C)[C@H](NC(=O)[C@H](CCC(=O)O)NC(=O)[C@H](CO)NC(=O)[C@@H](NC(=O)[C@@H](N)CO)C(C)C)C(=O)N[C@@H](CCC(N)=O)C(=O)N[C@@H](CC(C)C)C(=O)N[C@@H](CCSC)C(=O)N[C@@H](Cc1cnc[nH]1)C(=O)N[C@@H](CC(N)=O)C(=O)N[C@@H](CC(C)C)C(=O)NCC(=O)N[C@@H](CCCCN)C(=O)N[C@@H](Cc1cnc[nH]1)C(=O)N[C@@H](CC(C)C)C(=O)N[C@@H](CC(N)=O)C(=O)N[C@@H](CO)C(=O)N[C@@H](CCSC)C(=O)N[C@@H](CCC(=O)O)C(=O)N[C@@H](CCCN=C(N)N)C(=O)N[C@H](C(=O)N[C@@H](CCC(=O)O)C(=O)N[C@@H](Cc1c[nH]c2ccccc12)C(=O)N[C@@H](CC(C)C)C(=O)N[C@@H](CCCN=C(N)N)C(=O)N[C@@H](CCCCN)C(=O)N[C@@H](CCCCN)C(=O)N[C@@H](CC(C)C)C(=O)N[C@@H](CCC(N)=O)C(=O)N[C@@H](CC(=O)O)C(=O)N[C@H](C(=O)N[C@@H](Cc1cnc[nH]1)C(=O)N[C@@H](CC(N)=O)C(=O)N[C@@H](Cc1ccccc1)C(=O)O)C(C)C)C(C)C` [hPTH(1-34)], for which the “solubility in water (concentration)” value is more than 20%.
